Reference: patent US20230085307A1, “PYRIDAZINONE COMPOUND AND HERBICIDE” (NISSAN CHEMICAL CORPORATION, priority 2019, published 2023)

Key:
persian speedwell = experiment: Test Example 5: herbicidal effect by foliage application, plastic box (Table 20, symbol R); format: in vivo, Persian speedwell (Veronica persica); details: foliage application, AAH 320 g/ha, three weeks after application
Method in brief: (§1)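 Sow seeds spot-wise in sterilized diluvial soil; cover with ~1.5 cm soil. Grow 14 days in greenhouse, 25° C. to 30° C. Spray foliage with emulsion diluted to predetermined amount. Rate effect after 3 weeks.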

late watergrass = experiment: Test Example 2: herbicidal activity, application during weed generation under submerged conditions (Table 17, symbol A); format: in vivo, late watergrass (Echinochloa oryzicola); details: AAH 320 g/ha; application during weed generation, submerged conditions
Method in brief: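 Mixed weed seedlings in alluvial soil under a 4 cm water layer, greenhouse-grown at 25–30° C. Compound given as a diluted emulsion into the floodwater at the 1–2 leaf stage; response graded after three weeks.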

barnyard grass [1] = experiment: Test Example 3: herbicidal effect by foliage application, Wagner pot (Table 18, symbol H); format: in vivo, barnyard grass (Echinochloa crus-galli); details: 320 g/ha
Method in brief: (§2)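 Plants were sown in alluvial soil held under 0.1–0.5 cm standing water and grown 14 days in a greenhouse at 25–30 °C. An emulsifiable formulation, water-diluted to the set dose, was then sprayed onto the foliage, and effects were scored three weeks later using previously defined criteria.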

southern crabgrass = experiment: Test Example 4: herbicidal effect by soil treatment (Table 19, symbol F); format: in vivo, southern crabgrass (Digitaria ciliaris); details: for herbicidal effect rating, F: southern crabgrass: amount of applied herbicide 320 g/ha
Method in brief: (§3)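 Soil-surface application: an emulsion agent diluted with water to the predetermined dose is sprayed uniformly over seeds lying under roughly 1.5 cm of sterilized diluvial soil. Boxes stay in a greenhouse at 25° C. to 30° C. Three weeks later, each species is graded on previously defined criteria.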

wild oat = experiment: Test Example 5: herbicidal effect by foliage application, plastic box (Table 20, symbol I); format: in vivo, wild oat (Avena fatua); details: foliage application, AAH 320 g/ha, three weeks after application
Method in brief: as §1

blackgrass [2] = experiment: Test Example 5: herbicidal effect by foliage application, plastic box (Table 20, symbol J); format: in vivo, blackgrass (Alopecurus myosuroides); details: foliage application, AAH 320 g/ha, three weeks after application
Method in brief: as §1

velvetleaf = experiment: Test Example 5: herbicidal effect by foliage application, plastic box (Table 20, symbol M); format: in vivo, velvetleaf (Abutilon theophrasti); details: foliage application, AAH 320 g/ha, three weeks after application
Method in brief: as §1

chickweed = experiment: Test Example 4: herbicidal effect by soil treatment (Table 19, symbol P); format: in vivo, common chickweed (Stellaria media); details: for herbicidal effect rating, P: chickweed: amount of applied herbicide 320 g/ha
Method in brief: as §3

blackgrass [3] = experiment: Test Example 4: herbicidal effect by soil treatment (Table 19, symbol J); format: in vivo, blackgrass (Alopecurus myosuroides); details: for herbicidal effect rating, J: blackgrass: amount of applied herbicide 320 g/ha
Method in brief: as §3

lambsquarters = experiment: Test Example 4: herbicidal effect by soil treatment (Table 19, symbol O); format: in vivo, lambsquarters (Chenopodium album); details: for herbicidal effect rating, O: lambsquarters: amount of applied herbicide 320 g/ha
Method in brief: as §3

redroot pigweed [4] = experiment: Test Example 5: herbicidal effect by foliage application, plastic box (Table 20, symbol N); format: in vivo, redroot pigweed (Amaranthus retroflexus); details: foliage application, AAH 320 g/ha, three weeks after application
Method in brief: as §1

barnyard grass [5] = experiment: Test Example 5: herbicidal effect by foliage application, plastic box (Table 20, symbol H); format: in vivo, barnyard grass (Echinochloa crus-galli); details: foliage application, AAH 320 g/ha, three weeks after application
Method in brief: as §1

barnyard grass [6] = experiment: Test Example 4: herbicidal effect by soil treatment (Table 19, symbol H); format: in vivo, barnyard grass (Echinochloa crus-galli); details: for herbicidal effect rating, H: barnyard grass: amount of applied herbicide 320 g/ha
Method in brief: as §3

Italian ryegrass = experiment: Test Example 5: herbicidal effect by foliage application, plastic box (Table 20, symbol K); format: in vivo, Italian ryegrass (Lolium multiflorum); details: foliage application, AAH 320 g/ha, three weeks after application
Method in brief: as §1

Chinese sprangletop = experiment: Test Example 3: herbicidal effect by foliage application, Wagner pot (Table 18, symbol D); format: in vivo, chinese sprangletop (Leptochloa chinensis); details: 320 g/ha
Method in brief: as §2

redroot pigweed [7] = experiment: Test Example 4: herbicidal effect by soil treatment (Table 19, symbol N); format: in vivo, redroot pigweed (Amaranthus retroflexus); details: for herbicidal effect rating, N: redroot pigweed: amount of applied herbicide 320 g/ha
Method in brief: as §3

Structure (SMILES) | R: persian speedwell, herbicidal effect (persian speedwell) | herbicidal effect rating, A: late watergrass (late watergrass) | herbicidal effect on H (barnyard grass), rating 0-5 (barnyard grass [1]) | herbicidal effect rating, F: southern crabgrass (southern crabgrass) | I: wild oat, herbicidal effect (wild oat) | J: blackgrass, herbicidal effect (blackgrass [2]) | M: velvetleaf, herbicidal effect (velvetleaf) | herbicidal effect rating, P: chickweed (chickweed) | herbicidal effect rating, J: blackgrass (blackgrass [3]) | herbicidal effect rating, O: lambsquarters (lambsquarters) | N: redroot pigweed, herbicidal effect (redroot pigweed [4]) | H: barnyard grass, herbicidal effect (barnyard grass [5]) | herbicidal effect rating, H: barnyard grass (barnyard grass [6]) | K: Italian ryegrass, herbicidal effect (Italian ryegrass) | herbicidal effect on D (Chinese sprangletop), rating 0-5 (Chinese sprangletop) | herbicidal effect rating, N: redroot pigweed (redroot pigweed [7]) | also measured
Cc1nn(C)c(=O)c(-c2c(-c3ccc4c(c3)OCCO4)sc3ccccc23)c1OC(=O)SC(C)(C)C [1-092] | 5 (Herbicidal rate of 90% or more (almost completely withered)) | 3 (Herbicidal rate of 40% or more and less than 70%) | 4 (Herbicidal rate of 70% or more and less than 90%) | 0 (Herbicidal rate of 5% or less (almost no effect)) | 0 (Herbicidal rate of 5% or less (almost no effect)) | 0 (Herbicidal rate of 5% or less (almost no effect)) | 5 (Herbicidal rate of 90% or more (almost completely withered)) | 0 (Herbicidal rate of 5% or less (almost no effect)) | 0 (Herbicidal rate of 5% or less (almost no effect)) | 0 (Herbicidal rate of 5% or less (almost no effect)) | 0 (Herbicidal rate of 5% or less (almost no effect)) | 3 (Herbicidal rate of 40% or more and less than 70%) | 0 (Herbicidal rate of 5% or less (almost no effect)) | 0 (Herbicidal rate of 5% or less (almost no effect)) | 1 (Herbicidal rate of 5% or more and less than 20%) | 0 (Herbicidal rate of 5% or less (almost no effect)) | 
Cc1nn(C)c(=O)c(-c2c(-c3ccc4c(c3)CCO4)sc3ccccc23)c1O [1-101] | 5 (Herbicidal rate of 90% or more (almost completely withered)) | 3 (Herbicidal rate of 40% or more and less than 70%) | 5 (Herbicidal rate of 90% or more (almost completely withered)) | 3 (Herbicidal rate of 40% or more and less than 70%) | 3 (Herbicidal rate of 40% or more and less than 70%) | 4 (Herbicidal rate of 70% or more and less than 90%) | 5 (Herbicidal rate of 90% or more (almost completely withered)) | 5 (Herbicidal rate of 90% or more (almost completely withered)) | 0 (Herbicidal rate of 5% or less (almost no effect)) | 5 (Herbicidal rate of 90% or more (almost completely withered)) | 4 (Herbicidal rate of 70% or more and less than 90%) | 4 (Herbicidal rate of 70% or more and less than 90%) | 5 (Herbicidal rate of 90% or more (almost completely withered)) | 4 (Herbicidal rate of 70% or more and less than 90%) | 5 (Herbicidal rate of 90% or more (almost completely withered)) | 4 (Herbicidal rate of 70% or more and less than 90%) | 
CCCC(=O)Oc1c(C)nn(C)c(=O)c1-c1c(-c2ccc3c(c2)CCO3)sc2ccccc12 [1-102] | 5 (Herbicidal rate of 90% or more (almost completely withered)) | 3 (Herbicidal rate of 40% or more and less than 70%) | 4 (Herbicidal rate of 70% or more and less than 90%) | 2 (Herbicidal rate of 20% or more and less than 40%) | 1 (Herbicidal rate of 5% or more and less than 20%) | 0 (Herbicidal rate of 5% or less (almost no effect)) | 5 (Herbicidal rate of 90% or more (almost completely withered)) | 5 (Herbicidal rate of 90% or more (almost completely withered)) | 0 (Herbicidal rate of 5% or less (almost no effect)) | 4 (Herbicidal rate of 70% or more and less than 90%) | 5 (Herbicidal rate of 90% or more (almost completely withered)) | 3 (Herbicidal rate of 40% or more and less than 70%) | 3 (Herbicidal rate of 40% or more and less than 70%) | 3 (Herbicidal rate of 40% or more and less than 70%) | 3 (Herbicidal rate of 40% or more and less than 70%) | 4 (Herbicidal rate of 70% or more and less than 90%) | 
Cc1nn(C)c(=O)c(-c2c(-c3cnc4ccccc4c3)sc3ccccc23)c1O [1-108] | 0 (Herbicidal rate of 5% or less (almost no effect)) | 0 (Herbicidal rate of 5% or less (almost no effect)) | 0 (Herbicidal rate of 5% or less (almost no effect)) | 0 (Herbicidal rate of 5% or less (almost no effect)) | 0 (Herbicidal rate of 5% or less (almost no effect)) | 0 (Herbicidal rate of 5% or less (almost no effect)) | 1 (Herbicidal rate of 5% or more and less than 20%) | 0 (Herbicidal rate of 5% or less (almost no effect)) | 0 (Herbicidal rate of 5% or less (almost no effect)) | 3 (Herbicidal rate of 40% or more and less than 70%) | 0 (Herbicidal rate of 5% or less (almost no effect)) | 0 (Herbicidal rate of 5% or less (almost no effect)) | 0 (Herbicidal rate of 5% or less (almost no effect)) | 0 (Herbicidal rate of 5% or less (almost no effect)) | 3 (Herbicidal rate of 40% or more and less than 70%) | 0 (Herbicidal rate of 5% or less (almost no effect)) | 
CCCC(=O)Oc1c(C)nn(C)c(=O)c1-c1c(-c2ccc(C(C)C)cc2)sc2ccccc12 [1-126] | 4 (Herbicidal rate of 70% or more and less than 90%) | 2 (Herbicidal rate of 20% or more and less than 40%) | 5 (Herbicidal rate of 90% or more (almost completely withered)) |  | 2 (Herbicidal rate of 20% or more and less than 40%) | 0 (Herbicidal rate of 5% or less (almost no effect)) | 4 (Herbicidal rate of 70% or more and less than 90%) |  |  |  | 5 (Herbicidal rate of 90% or more (almost completely withered)) | 4 (Herbicidal rate of 70% or more and less than 90%) |  | 4 (Herbicidal rate of 70% or more and less than 90%) | 5 (Herbicidal rate of 90% or more (almost completely withered)) |  | F: southern crabgrass, herbicidal effect rating (southern crabgrass; AAH 320 g/ha): 0 (Herbicidal rate of 5% or less (almost no effect)); P: chickweed, herbicidal effect rating (chickweed; AAH 320 g/ha): 2 (Herbicidal rate of 20% or more and less than 40%); J: blackgrass, herbicidal effect rating (blackgrass [3]; AAH 320 g/ha): 0 (Herbicidal rate of 5% or less (almost no effect)); O: lambsquarters, herbicidal effect rating (lambsquarters; AAH 320 g/ha): 2 (Herbicidal rate of 20% or more and less than 40%); H: barnyard grass, herbicidal effect rating (barnyard grass [6]; AAH 320 g/ha): 0 (Herbicidal rate of 5% or less (almost no effect)); N: redroot pigweed, herbicidal effect rating (redroot pigweed [7]; AAH 320 g/ha): 3 (Herbicidal rate of 40% or more and less than 70%)
